ChEMBL document CHEMBL1909046, “DrugMatrix in vitro pharmacology data”

Assays:
[1] = target: T1, Alpha-1B adrenergic receptor (Rattus norvegicus, UniProt P15823); assay: DRUGMATRIX: Alpha-1B adrenergic receptor radioligand binding (ligand: prazosin); assay type: cell membranes, Wistar, Liver, Membrane; details: Not Active = under 50% inhibition at 10 µM
T1 sequence (P15823 whole entry): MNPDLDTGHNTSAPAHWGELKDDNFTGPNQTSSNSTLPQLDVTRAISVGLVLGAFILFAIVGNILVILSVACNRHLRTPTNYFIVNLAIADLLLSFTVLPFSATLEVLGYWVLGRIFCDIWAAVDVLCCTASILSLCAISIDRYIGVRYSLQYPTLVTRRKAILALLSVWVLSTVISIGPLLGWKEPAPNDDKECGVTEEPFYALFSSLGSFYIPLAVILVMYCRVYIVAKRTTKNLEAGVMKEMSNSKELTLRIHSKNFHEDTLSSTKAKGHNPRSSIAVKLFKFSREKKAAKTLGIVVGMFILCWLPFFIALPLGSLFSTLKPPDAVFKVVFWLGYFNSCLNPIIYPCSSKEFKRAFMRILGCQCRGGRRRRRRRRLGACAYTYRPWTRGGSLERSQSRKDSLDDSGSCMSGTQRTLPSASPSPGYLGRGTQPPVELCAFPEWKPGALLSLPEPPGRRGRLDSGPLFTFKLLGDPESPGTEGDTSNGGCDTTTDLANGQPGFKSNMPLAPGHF

[2] = target: T2, Neuropeptide Y receptor type 2 (Homo sapiens, UniProt P49146); assay type: cell membranes, Membrane; details: kan-ts; note: in other assays of this panel Not Active means under 50% inhibition at 10 µM
T2 sequence (P49146 whole entry): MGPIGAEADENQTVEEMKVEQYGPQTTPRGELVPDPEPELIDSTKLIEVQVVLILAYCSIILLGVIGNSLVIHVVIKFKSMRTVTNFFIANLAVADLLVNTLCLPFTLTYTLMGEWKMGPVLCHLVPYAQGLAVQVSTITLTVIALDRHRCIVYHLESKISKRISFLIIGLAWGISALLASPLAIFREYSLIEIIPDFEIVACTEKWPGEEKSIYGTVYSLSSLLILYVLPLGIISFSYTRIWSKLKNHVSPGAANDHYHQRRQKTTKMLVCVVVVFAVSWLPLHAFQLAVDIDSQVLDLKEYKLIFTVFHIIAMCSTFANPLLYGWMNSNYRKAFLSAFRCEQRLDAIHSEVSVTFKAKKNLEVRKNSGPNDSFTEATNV

[3] = target: C-C chemokine receptor type 5 (Homo sapiens, UniProt P51681); assay type: cell membranes, HEK293, Membrane; details: hek293; note: in other assays of this panel Not Active means under 50% inhibition at 10 µM
[4] = DRUGMATRIX: GABAA, Flunitrazepam, Central radioligand binding (ligand: [3H] Flunitrazepam); assay type: cell membranes, Rattus norvegicus, Wistar, Brain, Membrane; details: Not Active = under 50% inhibition at 10 µM
[5] = target: Mitogen-activated protein kinase 14 (Homo sapiens, UniProt Q16539); design: species or system Escherichia coli;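 note: inhibition of p38alpha enzyme activity in a biochemical kinase assay, with myelin basic protein serving as substrate; in other assays of this panel Not Active means under 50% inhibition at 10 µM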
[6] = target: T3, Alpha-2C adrenergic receptor (Homo sapiens, UniProt P18825); assay: DRUGMATRIX: Adrenergic Alpha-2C radioligand binding (ligand: [3H] MK-912); assay type: cell membranes, Sf9, Membrane; details: sf9
T3 sequence (P18825 whole entry): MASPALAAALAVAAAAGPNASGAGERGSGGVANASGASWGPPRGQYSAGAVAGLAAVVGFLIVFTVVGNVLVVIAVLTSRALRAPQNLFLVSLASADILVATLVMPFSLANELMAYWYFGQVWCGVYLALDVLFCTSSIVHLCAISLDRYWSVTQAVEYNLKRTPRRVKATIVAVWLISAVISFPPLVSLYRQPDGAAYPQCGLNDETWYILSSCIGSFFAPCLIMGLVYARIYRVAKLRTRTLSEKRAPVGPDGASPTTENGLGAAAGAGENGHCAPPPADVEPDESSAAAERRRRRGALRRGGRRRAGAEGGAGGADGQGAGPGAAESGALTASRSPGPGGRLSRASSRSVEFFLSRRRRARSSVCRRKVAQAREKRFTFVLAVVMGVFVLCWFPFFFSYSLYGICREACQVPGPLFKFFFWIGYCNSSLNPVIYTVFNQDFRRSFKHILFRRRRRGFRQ

Chain of Mitogen-activated protein kinase 14 (Q16539 whole entry): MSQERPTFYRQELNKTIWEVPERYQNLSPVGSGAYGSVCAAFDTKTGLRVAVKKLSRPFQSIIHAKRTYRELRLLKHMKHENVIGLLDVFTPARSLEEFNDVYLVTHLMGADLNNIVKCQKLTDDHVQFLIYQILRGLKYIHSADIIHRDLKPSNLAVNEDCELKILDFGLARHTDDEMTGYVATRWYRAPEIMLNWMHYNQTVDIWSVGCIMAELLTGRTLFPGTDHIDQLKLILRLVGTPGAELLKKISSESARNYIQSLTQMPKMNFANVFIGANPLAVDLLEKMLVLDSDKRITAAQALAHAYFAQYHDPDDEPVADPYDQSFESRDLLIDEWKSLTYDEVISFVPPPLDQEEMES
Chain of C-C chemokine receptor type 5 (P51681 whole entry): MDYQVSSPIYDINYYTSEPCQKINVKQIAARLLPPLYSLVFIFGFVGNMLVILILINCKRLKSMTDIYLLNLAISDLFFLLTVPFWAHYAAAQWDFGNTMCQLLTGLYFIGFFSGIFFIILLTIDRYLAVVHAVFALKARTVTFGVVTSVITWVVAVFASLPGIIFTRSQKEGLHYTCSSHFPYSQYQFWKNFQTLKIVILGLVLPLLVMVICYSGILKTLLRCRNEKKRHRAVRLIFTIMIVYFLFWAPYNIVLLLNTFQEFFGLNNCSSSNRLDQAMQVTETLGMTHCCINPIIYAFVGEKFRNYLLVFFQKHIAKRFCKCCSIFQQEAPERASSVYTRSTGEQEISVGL

C[N+](C)(C)CCOP(=O)([O-])OC[C@H](O)CO
Not Active: IC50 [1] | IC50 [2] | IC50 [3] | IC50 [4] | Ki [4] | IC50 [5] | IC50 [6]

CCC1(c2ccccc2)C(=O)NC(=O)NC1=O [PHENOBARBITAL]
Not Active: IC50 [1] | IC50 [2] | IC50 [3] | IC50 [4] | Ki [4] | IC50 [5] | IC50 [6]

O=C(O)COC(=O)Cc1ccccc1Nc1c(Cl)cccc1Cl [ACECLOFENAC]
Not Active: IC50 [1] | IC50 [2] | IC50 [3] | IC50 [4] | Ki [4] | IC50 [5] | IC50 [6]
